These results are taken from patent US10829473B2, “Modulators of the cystic fibrosis transmembrane conductance regulator protein and methods of use” (AbbVie Overseas S.Á.R.L., priority 2017, dated 2020).

The term EC50 denotes the concentration giving half of the maximal effect.

This assay deals with T1, F508delCFTR (Homo sapiens, UniProt P13569, DEL508-508).
T1 construct: expressed in transfected cells; host or cells: CFBE41o- human lung derived epithelial cells (CFBE41o-F508delCFTR-HRP), doxycycline-inducible
As to the kind of experiment: Cell Surface Expression-Horse Radish Peroxidase (CSE-HRP) Assay.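 For EC50 (with co-corrector): co-corrector chromenyl benzoic acid corrector at 2 or 3 µM.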 In kind it is cell-based. The following applies: for Maximum % activity (with co-corrector) / Emax: maximum at any tested concentration; for Emax: read-out: Maximum % activity (without co-corrector). Here is the method:
A cellular assay for measuring the F508delCFTR cell surface expression after correction with test compounds either without or with a co-corrector (2 μM of 3-[(2R,4R)-4-({[1-(2,2-difluoro-1,3-benzodioxol-5-yl)cyclopropyl]carbonyl}amino)-7-methoxy-3,4-dihydro-2H-chromen-2-yl]benzoic acid), was developed in human lung derived epithelial cell line (CFBE4lo−) (Veit G et al, (2012) Mol Biol Cell. 23(21): 4188-4202). The development was achieved by expressing the F508delCFTR mutation along with a horseradish peroxidase (HRP) in the fourth exofacial loop, and then measuring the HRP activity using luminescence readout from these cells, CFBE410-F508delCFTR-HRP, that were incubated overnight with the test corrector compounds, either without or with the co-corrector. For this primary assay, the CFBE410-F508delCFTR-HRP cells were plated in 384-well plates (Greiner Bio-one; Cat 781080) at 4,000 cells/well along with 0.5 μg/mL doxycycline to induce the F508delCFTR-HRP expression and further incubated at 37° C., 5% CO2 for 68-72 hours. The test compounds were then added either without or with a co-corrector at the required concentrations and further incubated for 18-24 hours at 33° C. The highest concentration tested was 20 μM or 30 μM (GI-1 to GIII-36) with an 8-point concentration response curve using a 3-fold dilution in both the test compound without or with the co-corrector. Three replicate plates were run to determine one EC50. All plates contained negative controls (dimethyl sulfoxide, DMSO) and positive control (2 μM or 3 μM (GI-1 to GIII-36) of 3-[(2R,4R)-4-({[1-(2,2-difluoro-1,3-benzodioxol-5-yl)cyclopropyl]carbonyl}amino)-7-methoxy-3,4-dihydro-2H-chromen-2-yl]benzoic acid) as well as on-plate concentration response of the positive control. Post incubation, the plates were washed 5× times with Dulbecco's phosphate buffered saline (DPBS), followed by the addition of the HRP substrate, luminol (50 4), and measuring the HRP activity using luminescence readout on EnVision® Multilabel Plate Reader (Perkin Elmer; product number 2104-0010). The raw counts from the experiment were analyzed using Accelrys® Assay Explorer v3.3.
Z′ greater than 0.5 was used as passing quality control criteria for the plates.
The Z′ is defined as: 1−[3*SDPositve Control+3*SDNegative Control/Absolute(MeanPositive Control−MeanNegative Control)] wherein “SD” is standard deviation.
The % activity measured at each of the 8 test concentrations of the test compound added either without or with a co-corrector (2 μM or 3 μM (GI-1 to GIII-36) of 3-[(2R,4R)-4-({[1-(2,2-difluoro-1,3-benzodioxol-5-yl)cyclopropyl]carbonyl}amino)-7-methoxy-3,4-dihydro-2H-chromen-2-yl]benzoic acid) was normalized to the on-plate positive control using the following formulae: % activity (Test compound without co-corrector)=[(test compound without co-corrector response DMSO response)/(positive control response DMSO response)]*100 % activity (Test compound with co-corrector)=[(test compound with co-corrector response DMSO response)/(positive control response DMSO response)]*100
The maximum % activity achieved for the test compound either without or with a co-corrector at any tested concentration is presented in Table 6 along with the respective EC50's calculated using the following general sigmoidal curve with variable Hill slope equation (described as Model 42 in the Accelrys® Assay Explorer v3.3 software): y=(a−d)/(1+(x/c)b)+d
General sigmoidal curve with concentration, response, top, bottom, EC50 and Hill slope. This model describes a sigmoidal curve with an adjustable baseline, a. The equation can be used to fit curves where response is either increasing or decreasing with respect to the independent variable, “x”.
“x” is a concentration of drug under test.
“a” is the maximum response, and “d” is the minimum response
“c” is the inflection point (EGO for the curve. That is, “y” is halfway between the lower and upper asymptotes when x=c.
“b” is the slope-factor or Hill coefficient. […]

Setting [1] is: test compound with co-corrector.
[2] abbreviates: test compound with co-corrector, read-out: EC50 (with co-corrector).
[3] abbreviates: test compound without co-corrector.
Where [4] appears, read: test compound without co-corrector, read-out: EC50 (without co-corrector).

Each structure is given as a SMILES string. Read-outs that look alike come from different tables or passages of the source.

T1 sequence (P13569 with tags, fused parts or gaps DEL508-508): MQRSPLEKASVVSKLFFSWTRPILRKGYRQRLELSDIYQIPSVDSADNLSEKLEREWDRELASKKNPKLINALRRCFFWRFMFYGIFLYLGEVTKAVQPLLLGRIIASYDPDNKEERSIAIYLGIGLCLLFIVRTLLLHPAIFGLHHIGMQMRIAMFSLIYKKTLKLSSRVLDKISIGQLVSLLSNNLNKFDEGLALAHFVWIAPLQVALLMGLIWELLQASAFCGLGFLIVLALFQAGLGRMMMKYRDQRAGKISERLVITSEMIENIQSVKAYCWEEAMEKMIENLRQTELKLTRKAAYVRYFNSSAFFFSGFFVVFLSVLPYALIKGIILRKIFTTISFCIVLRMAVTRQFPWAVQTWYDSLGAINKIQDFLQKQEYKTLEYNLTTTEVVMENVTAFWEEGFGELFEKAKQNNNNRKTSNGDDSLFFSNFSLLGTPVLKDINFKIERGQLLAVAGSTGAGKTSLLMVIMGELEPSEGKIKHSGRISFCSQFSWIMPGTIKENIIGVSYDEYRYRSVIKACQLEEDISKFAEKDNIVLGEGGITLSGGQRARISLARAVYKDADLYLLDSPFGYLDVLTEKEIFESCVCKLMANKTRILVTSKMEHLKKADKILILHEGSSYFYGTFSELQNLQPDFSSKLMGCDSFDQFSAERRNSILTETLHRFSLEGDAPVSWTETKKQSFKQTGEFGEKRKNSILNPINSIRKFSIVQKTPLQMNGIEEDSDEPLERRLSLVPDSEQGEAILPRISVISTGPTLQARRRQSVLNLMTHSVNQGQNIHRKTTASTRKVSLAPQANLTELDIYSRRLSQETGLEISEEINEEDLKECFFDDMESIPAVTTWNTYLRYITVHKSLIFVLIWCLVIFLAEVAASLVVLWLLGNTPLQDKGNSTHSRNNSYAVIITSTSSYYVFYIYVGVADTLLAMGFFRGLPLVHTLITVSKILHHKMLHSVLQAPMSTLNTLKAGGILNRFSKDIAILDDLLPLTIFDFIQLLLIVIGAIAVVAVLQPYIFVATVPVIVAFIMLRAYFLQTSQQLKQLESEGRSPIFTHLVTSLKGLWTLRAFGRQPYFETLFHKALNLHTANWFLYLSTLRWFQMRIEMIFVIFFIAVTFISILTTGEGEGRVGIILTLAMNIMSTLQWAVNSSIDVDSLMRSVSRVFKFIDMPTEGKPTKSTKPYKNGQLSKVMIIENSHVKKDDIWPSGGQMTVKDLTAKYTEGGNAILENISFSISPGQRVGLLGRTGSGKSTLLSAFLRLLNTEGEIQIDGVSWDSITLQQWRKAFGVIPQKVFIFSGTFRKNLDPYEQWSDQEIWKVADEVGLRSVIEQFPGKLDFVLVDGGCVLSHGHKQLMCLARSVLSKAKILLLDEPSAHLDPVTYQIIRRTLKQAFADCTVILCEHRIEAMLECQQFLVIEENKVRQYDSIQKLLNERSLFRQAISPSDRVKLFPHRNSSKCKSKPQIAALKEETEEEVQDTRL

Take `CC(C)Oc1ncc(N2CCCC2)cc1C1(C(=O)NS(=O)(=O)c2cccc3[nH]ccc23)CC1` [Example GI-64, N-(1H-indole-4-sulfonyl)-1-{2-[(propan-2-yl)oxy]-5-(pyrrolidin-1-yl)pyridin-3-yl}cyclopropane-1-carboxamide]: under setting [1], the “Maximum % activity (with co-corrector)” value is reported as “+++ (≥350)”. Moreover, the EC50 was less than 3 µM under setting [2] and less than 3 µM under setting [4]. In addition, the Emax under setting [3] was more than 150%.
`CC(C)Oc1cnc(OC(C)C)c(C2(C(=O)NS(=O)(=O)c3cccc4ncccc34)CC2)c1` [Example GI-65, 1-{2,5-bis[(propan-2-yl)oxy]pyridin-3-yl}-N-(quinoline-5-sulfonyl)cyclopropane-1-carboxamide]: the “Maximum % activity (with co-corrector)” value under setting [1] was “+++ (≥350)”. The EC50 under setting [2] was less than 3 µM and the EC50 under setting [4] was less than 3 µM. In addition, under setting [3], the Emax was more than 150%.
`CC(C)Oc1cnc(OC(C)C)c(C2(C(=O)NS(=O)(=O)c3cccc4[nH]ccc34)CC2)c1` [Example GI-66, 1-{2,5-bis[(propan-2-yl)oxy]pyridin-3-yl}-N-(1H-indole-4-sulfonyl)cyclopropane-1-carboxamide]: the “Maximum % activity (with co-corrector)” value under setting [1] is “+++ (≥350)”. The EC50 reads like this: under setting [2], less than 3 µM; under setting [4], less than 3 µM. In addition, the Emax under setting [3] was more than 150%.
Consider `Cc1ccc2c(S(=O)(=O)NC(=O)C3(c4cc(OC(C)C)cnc4OC(C)C)CC3)cccc2n1` [Example GI-67, 1-{2,5-bis[(propan-2-yl)oxy]pyridin-3-yl}-N-(2-methylquinoline-5-sulfonyl)cyclopropane-1-carboxamide], for which the “Maximum % activity (with co-corrector)” value under setting [1] is “+++ (≥350)”. Further, the EC50 under setting [2] was less than 3 µM and the EC50 under setting [4] lay in the range of 3 to 10 µM. Under setting [3], the Emax was more than 150%.
Taken in the same sequence, the figures for `CC(C)COc1ncc(N2CCCC2)cc1C1(C(=O)NS(=O)(=O)c2cccc3ncccc23)CC1` [Example GI-68, 1-[2-(2-methylpropoxy)-5-(pyrrolidin-1-yl)pyridin-3-yl]-N-(quinoline-5-sulfonyl)cyclopropane-1-carboxamide] were “+++ (≥350)”, less than 3 µM, less than 3 µM and more than 150%.
For `Cc1ccc2c(S(=O)(=O)NC(=O)C3(c4cc(N5CCCC5)cnc4OCC(C)C)CC3)cccc2n1` [Example GI-69, 1-[2-(2-methylpropoxy)-5-(pyrrolidin-1-yl)pyridin-3-yl]-N-(2-methylquinoline-5-sulfonyl)cyclopropane-1-carboxamide], in that order: “+++ (≥350)”, less than 3 µM, less than 3 µM and more than 150%.
Taken in the same sequence, the figures for `CC(C)COc1ncc(N2CCCC2)cc1C1(C(=O)NS(=O)(=O)c2cccc3[nH]ccc23)CC1` [Example GI-70, N-(1H-indole-4-sulfonyl)-1-[2-(2-methylpropoxy)-5-(pyrrolidin-1-yl)pyridin-3-yl]cyclopropane-1-carboxamide] were “+++ (≥350)”, less than 3 µM, less than 3 µM and more than 150%.
With `CC(C)Oc1ncc(N(C)C)cc1C1(C(=O)NS(=O)(=O)c2cccc3ncccc23)CC1` [Example GI-71, 1-{5-(dimethylamino)-2-[(propan-2-yl)oxy]pyridin-3-yl}-N-(quinoline-5-sulfonyl)cyclopropane-1-carboxamide], the “Maximum % activity (with co-corrector)” value under setting [1] is “+++ (≥350)”. In addition, the EC50 was less than 3 µM under setting [2] and 3 to 10 µM under setting [4]. Besides, the Emax under setting [3] is more than 150%.
Taken in the same sequence, the figures for `CC(C)Oc1ncc(N(C)C)cc1C1(C(=O)NS(=O)(=O)c2cccc3[nH]ccc23)CC1` [Example GI-73, 1-{5-(dimethylamino)-2-[(propan-2-yl)oxy]pyridin-3-yl}-N-(1H-indole-4-sulfonyl)cyclopropane-1-carboxamide] were “+++ (≥350)”, less than 3 µM, 3 to 10 µM and more than 150%.
For `COc1cnc(OC(C)C)c(C2(C(=O)NS(=O)(=O)c3cccc4ncccc34)CC2)c1` [Example GI-74, 1-{5-methoxy-2-[(propan-2-yl)oxy]pyridin-3-yl}-N-(quinoline-5-sulfonyl)cyclopropane-1-carboxamide], in that order: “+++ (≥350)”, less than 3 µM, 3 to 10 µM and more than 150%.
Taken in the same sequence, the figures for `COc1cnc(OC(C)C)c(C2(C(=O)NS(=O)(=O)c3cccc4[nH]ccc34)CC2)c1` [Example GI-75, N-(1H-indole-4-sulfonyl)-1-{5-methoxy-2-[(propan-2-yl)oxy]pyridin-3-yl}cyclopropane-1-carboxamide] were “+++ (≥350)”, less than 3 µM, 3 to 10 µM and more than 150%.
In the case of `COc1cnc(OC(C)C)c(C2(C(=O)NS(=O)(=O)c3cccc4nc(C)ccc34)CC2)c1` [Example GI-76, 1-{5-methoxy-2-[(propan-2-yl)oxy]pyridin-3-yl}-N-(2-methylquinoline-5-sulfonyl)cyclopropane-1-carboxamide], under setting [1], the “Maximum % activity (with co-corrector)” value is “+++ (≥350)”. The EC50 is, setting by setting: under setting [2], less than 3 µM; under setting [4], less than 3 µM. Also, the Emax under setting [3] is more than 150%.
For `COc1cnc(OCC(C)C)c(C2(C(=O)NS(=O)(=O)c3cccc4ncccc34)CC2)c1` [Example GI-77, 1-[5-methoxy-2-(2-methylpropoxy)pyridin-3-yl]-N-(quinoline-5-sulfonyl)cyclopropane-1-carboxamide], the “Maximum % activity (with co-corrector)” value under setting [1] is “+++ (≥350)”. Besides, the EC50 runs as follows: under setting [2], less than 3 µM; under setting [4], less than 3 µM. The Emax under setting [3] is more than 150%.
Regarding `COc1cnc(OCC(C)C)c(C2(C(=O)NS(=O)(=O)c3cccc4[nH]ccc34)CC2)c1` [Example GI-78, N-(1H-indole-4-sulfonyl)-1-[5-methoxy-2-(2-methylpropoxy)pyridin-3-yl]cyclopropane-1-carboxamide], the “Maximum % activity (with co-corrector)” value under setting [1] is recorded as “+++ (≥350)”. Moreover, the EC50 reads like this: under setting [2], less than 3 µM; under setting [4], less than 3 µM. In addition, the Emax under setting [3] is more than 150%.
As to `COc1cnc(OCC(C)C)c(C2(C(=O)NS(=O)(=O)c3cccc4nc(C)ccc34)CC2)c1` [Example GI-79, 1-[5-methoxy-2-(2-methylpropoxy)pyridin-3-yl]-N-(2-methylquinoline-5-sulfonyl)cyclopropane-1-carboxamide], under setting [1], the “Maximum % activity (with co-corrector)” value is “+++ (≥350)”. The EC50 under setting [2] is less than 3 µM and the EC50 under setting [4] is less than 3 µM. In addition, the Emax under setting [3] is more than 150%.
For `Cc1ccc(C2(C(=O)NS(=O)(=O)c3cccc4ncccc34)CC2)c(OC(C)C)n1` [Example GI-80, 1-{6-methyl-2-[(propan-2-yl)oxy]pyridin-3-yl}-N-(quinoline-5-sulfonyl)cyclopropane-1-carboxamide], under setting [1], the “Maximum % activity (with co-corrector)” value is “+++ (≥350)”. The EC50 was less than 3 µM under setting [2] and less than 3 µM under setting [4]. The Emax under setting [3] was more than 150%.
